One test addresses PI-3 kinase γ (Homo sapiens, UniProt P48736). As to the kind of experiment: PI3Kγ inhibitory activity, PI3-kinase HTRF assay (inhibition ratio). It is filed as biochemical. The conditions noted are these: 0.5 h; PI3Kγ, compound at 10 μM. In a few lines: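 PI3Kγ preincubated 10 min with compound and PIP2 substrate (MgCl2, DTT), then ATP added for 30 min at room temperature. PIP3 detected by HTRF (665/620 nm ratio) after 18 h. Inhibition ratio at 50 or 10 μmol/L, normalised to no-compound and no-enzyme controls.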
Sequence of PI-3 kinase γ (P48736 whole entry): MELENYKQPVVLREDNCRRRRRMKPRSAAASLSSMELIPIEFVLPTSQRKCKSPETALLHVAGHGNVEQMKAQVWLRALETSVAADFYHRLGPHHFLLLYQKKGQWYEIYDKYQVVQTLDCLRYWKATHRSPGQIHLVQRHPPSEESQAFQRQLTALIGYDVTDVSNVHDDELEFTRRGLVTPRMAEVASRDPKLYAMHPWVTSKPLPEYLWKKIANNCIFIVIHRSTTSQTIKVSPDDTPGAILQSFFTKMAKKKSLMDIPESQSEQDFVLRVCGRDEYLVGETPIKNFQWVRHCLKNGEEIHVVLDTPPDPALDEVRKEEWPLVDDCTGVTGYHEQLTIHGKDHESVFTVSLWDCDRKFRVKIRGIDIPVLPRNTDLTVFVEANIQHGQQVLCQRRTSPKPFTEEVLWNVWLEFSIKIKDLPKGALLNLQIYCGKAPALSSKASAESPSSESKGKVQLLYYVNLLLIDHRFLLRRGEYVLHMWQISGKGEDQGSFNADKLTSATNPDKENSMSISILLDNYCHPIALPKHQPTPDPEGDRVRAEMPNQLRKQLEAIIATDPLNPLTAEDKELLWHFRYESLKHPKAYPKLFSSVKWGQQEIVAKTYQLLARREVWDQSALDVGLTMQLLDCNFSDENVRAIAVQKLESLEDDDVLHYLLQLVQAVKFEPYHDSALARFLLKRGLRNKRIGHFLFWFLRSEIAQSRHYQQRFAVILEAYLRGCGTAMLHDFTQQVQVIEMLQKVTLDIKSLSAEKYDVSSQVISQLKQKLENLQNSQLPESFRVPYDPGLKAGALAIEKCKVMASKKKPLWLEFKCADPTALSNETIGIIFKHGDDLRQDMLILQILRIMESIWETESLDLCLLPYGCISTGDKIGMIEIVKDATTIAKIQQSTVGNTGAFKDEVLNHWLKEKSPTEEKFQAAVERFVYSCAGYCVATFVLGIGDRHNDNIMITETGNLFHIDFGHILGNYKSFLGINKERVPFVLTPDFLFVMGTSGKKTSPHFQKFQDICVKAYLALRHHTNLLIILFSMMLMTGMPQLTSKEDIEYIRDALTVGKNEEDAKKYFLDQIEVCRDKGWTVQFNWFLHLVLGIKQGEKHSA
On to `CNC(=O)Nc1cc2n(n1)CCN2c1ccc(C(=O)NC)s1` [Compound I-256], for which the inhibition (in general, the relative decrease from the control value, in per cent) at 10 µM came to 78%. Still for that read-out and setting: the value for `COc1cc(N2CCc3nc(NC(=O)N[C@@H](CC(=O)OC(C)(C)C)C(=O)O)sc3C2)nc(OC)n1` [Compound I-280] was at least 95%. The same measure, in the same setting: the value for `COc1cc(N2CCc3nc(NC(=O)NCCC(=O)Nc4ccccc4)sc3C2)nc(OC)n1` [Compound I-273] was at least 95%.

The test is the same for the next values; noted with them: 0.5 h; PI3Kγ, compound at 50 μM.
`CNC(=O)Nc1cc2n(n1)CCN2c1ccccn1` [Compound I-88]: the inhibition at 50 µM came to 85%.

`CNC(=O)Nc1cc2n(n1)CCN2c1cccc(C(=O)O)c1` [Compound I-91]: the inhibition at 50 µM was at least 95%.

For `CNC(=O)Nc1nc2c(s1)CN(c1cc(Cl)ncn1)CC2` [Compound I-106], the inhibition at 50 µM is at least 95%. The same measure, in the same setting: the value for `CC(=O)NCCC(=O)Nc1cc2n(n1)CCN2c1cccc(Cl)c1` [Compound I-244] was 87%; that for `CNC(=O)Nc1cc2n(n1)CCN2c1cccc(CC(=O)O)c1` [Compound I-153] was 74%; that for `CNC(=O)Nc1cc2n(n1)CCN2C(=O)OC(C)(C)C` [Compound I-8] was at least 95%. In the case of `CNC(=O)Nc1cc2n(n1)CCN2c1cc(C(=O)OC)nc(Cl)n1` [Compound I-127], the inhibition at 50 µM amounted to 79%. Still for that read-out and setting: then `CC(=O)N1CCC(C(=O)Nc2cc3n(n2)CCN3c2cccc(Cl)c2)CC1` [Compound I-236], with 88%; and `CNC(=O)Nc1nc2c(s1)CN(c1cc(C(=O)OC)nc(Cl)n1)CC2` [Compound I-100], with at least 95%; and `CNC(=O)Nc1cc2n(n1)CCN2c1cncc(OC)c1` [Compound I-79], with at least 95%. As for `CNC(=O)Nc1cc2n(n1)CCN2c1cc(C(=O)N2CCOCC2)cc(C2CCCCC2)c1` [Compound I-267], the inhibition at 50 µM was at least 95%. For the compound `Nc1cc(N2CCc3nc(NC(=O)c4cccc(Cl)c4)sc3C2)nc(Cl)n1` [Compound I-137], the inhibition at 50 µM amounted to 87%.

`CNC(=O)Nc1nc2c(s1)CN(c1cc(C(N)=O)nc(Cl)n1)CC2` [Compound I-108]: the inhibition at 50 µM was at least 95%.

In the case of `O=C(Nc1cc2n(n1)CCN2c1cccc(Cl)c1)c1ccn[nH]1` [Compound I-246], the inhibition at 50 µM was 90%. Still for that read-out and setting: the value for `CNC(=O)Nc1nc2c(s1)CN(c1cc(Cl)nc(Cl)n1)CC2` [Compound I-111] was at least 95%. The same measure, in the same setting: then `CNC(=O)Nc1cc2n(n1)CCN2C(=O)c1ccc2c(c1)CCO2` [Compound I-35], with 77%.

For `CNC(=O)Nc1cc2n(n1)CCN2c1ccc(C(=O)OC)c(OC)c1` [Compound I-144], the inhibition at 50 µM was at least 95%.

Consider `O=C(O)CNC(=O)Nc1cc2n(n1)CCN2c1ccccc1` [Compound I-132], for which the inhibition at 50 µM was at least 95%. Still for that read-out and setting: the value for `CNC(=O)Nc1nc2c(s1)CN(c1nccc(OC)n1)CC2` [Compound I-93] was 92%. Same read-out and setting: then `CNC(=O)Nc1cc2n(n1)CCN(c1cccc(C(=O)OC)c1)C2` [Compound I-81], with 75%; and `CNC(=O)Nc1cc2n(n1)CCN2c1cccc(O)c1` [Compound I-105], with at least 95%; and `O=C(Nc1cc2n(n1)CCN2c1cccc(Cl)c1)C1CCCC1` [Compound I-237], with 84%. The same measure, in the same setting: the value for `CC(=O)Nc1cc2n(n1)CCN2C(=O)c1ccccc1` [Compound I-2] was at least 95%. For the compound `CNC(=O)Nc1cc2n(n1)CCN2c1cccc(Cl)c1` [Compound I-67], the inhibition at 50 µM is at least 95%.

Take `CNC(=O)Nc1nc2c(s1)CN(c1cc(N)nc(Cl)n1)CC2` [Compound I-122]: the inhibition at 50 µM was 76%. On to `CNC(=O)Nc1nc2c(s1)CN(c1cc(C(=O)NC3CCCC3)nc(Cl)n1)CC2` [Compound I-110], for which the inhibition at 50 µM was at least 95%.

Take `CNC(=O)Nc1cc2n(n1)CCN2c1cc(C(=O)N2CCOCC2)cc(C2=CCCCC2)c1` [Compound I-231]: the inhibition at 50 µM was at least 95%. The same measure, in the same setting: then `CNC(=O)Nc1cc2n(n1)CCN2c1cc(C(=O)O)cc(-c2ccccc2)c1` [Compound I-163], with at least 95%.

Still in this test, the particulars now being: 0.5 h; compound at 10 μmol/L.
For the compound `CN1CCc2cc(N3CCn4nc(NC(=O)NCCC(=O)OC(C)(C)C)cc43)ccc2C1=O` [Compound I-530], the inhibition at 10 µM stood at 92%. For the compound `CC(C)NC(=O)Nc1cccc(C(=O)Nc2cc3n(n2)CCN3c2ccc3c(c2)CCN(C)C3=O)c1` [Compound I-470], the inhibition at 10 µM is 79%. For the compound `COCn1ccc(C(=O)Nc2cc3n(n2)CCN3c2ccc3c(c2)CCN(C)C3=O)n1` [Compound I-467], the inhibition at 10 µM was at least 95%. Still for that read-out and setting: the value for `CN1CCc2cc(N3CCn4nc(NC(=O)c5ccc6[nH]cnc6c5)cc43)ccc2C1=O` [Compound I-349] was at least 95%. With `Cc1ncsc1C(=O)Nc1cc2n(n1)CCN2c1ccc2c(c1)CCN(C)C2=O` [Compound I-449], the inhibition at 10 µM was at least 95%. Still for that read-out and setting: then `CN1CCc2cc(N3CCn4nc(NC(=O)c5ccc(N6CCCC6)s5)cc43)ccc2C1=O` [Compound I-371], with at least 95%; and `CC(C)c1cc(C(=O)Nc2cc3n(n2)CCN3c2ccc3c(c2)CCN(C)C3=O)cs1` [Compound I-427], with 88%; and `CCOC(=O)CNC(=O)Nc1cc2n(n1)CCN2c1ccc2c(c1)CCN(C)C2=O` [Compound I-501], with 81%. With `CN1CCc2cc(N3CCn4nc(NC(=O)[C@@H]5CCC(=O)N5)cc43)ccc2C1=O` [Compound I-506], the inhibition at 10 µM was 84%. On the same count and under the same terms, the value for `CN1CCc2cc(N3CCn4nc(NC(=O)c5cnc(Br)s5)cc43)ccc2C1=O` [Compound I-377] was at least 95%. Still for that read-out and setting: then `CN1CCc2cc(N3CCn4nc(NC(=O)c5cccc(O)c5)cc43)ccc2C1=O` [Compound I-461], with 95%; and `COc1cc(N2CCc3nc(NC(=O)c4ccc(C)o4)sc3C2)nc(OC)n1` [Compound I-456], with 87%. On the same count and under the same terms, then `COc1cc(N2CCc3nc(NC(=O)NCCC(=O)N4CCC[C@H]4C(=O)NC(C)(C)C)sc3C2)nc(OC)n1` [Compound I-311], with at least 95%.

In the case of `CCCNS(=O)(=O)c1ccc(C(=O)Nc2cc3n(n2)CCN3c2ccc3c(c2)CCN(C)C3=O)cc1` [Compound I-526], the inhibition at 10 µM was found to be 90%. On the same count and under the same terms, the value for `COCCOc1ccc(C(=O)Nc2cc3n(n2)CCN3c2ccc3c(c2)CCN(C)C3=O)cc1` [Compound I-549] was at least 95%; that for `CN1CCc2cc(N3CCn4nc(NC(=O)c5csc(S(=O)(=O)N6CCCC6)c5)cc43)ccc2C1=O` [Compound I-436] was at least 95%. For `COc1cc(N2CCc3nc(NC(=O)C4CN(C(=O)OC(C)(C)C)C4)sc3C2)nc(OC)n1` [Compound I-529], the inhibition at 10 µM stood at 82%. On the same count and under the same terms, then `CC(C)NC(=O)c1ccccc1NC(=O)Nc1nc2c(s1)CN(C(=O)c1ccccc1)CC2` [Compound I-488], with 88%; and `CNc1ccccc1C(=O)Nc1cc2n(n1)CCN2c1ccc2c(c1)CCN(C)C2=O` [Compound I-494], with 78%.

Still in this test, the particulars now being: 0.5 h; compound at 50 μmol/L.
On to `CN1CCc2cc(N3CCn4nc(NC(=O)c5ccc(Br)s5)cc43)ccc2C1=O` [Compound I-365], for which the inhibition at 50 µM was 81%. Same read-out and setting: the value for `CN1CCc2cc(N3CCn4nc(NC(=O)C5CCCO5)cc43)ccc2C1=O` (stereo not shown) [Compound I-372] was 84%.
